Reference: patent US8748398B2, “Stroke-targeting peptide and use thereof” (Kyungpook National University Industry-Academic Cooperation …, priority 2008, dated 2014)
Where no end group is shown, it is not given here.

Columns and labels:
[1] = system: ipsilateral (ischemic) hemisphere of a brain; assay: In vivo screening of phage-displayed CX7C peptide library, frequency of selected clones; conditions: 30 phage clones randomly selected in second and third rounds, rat with occluded MCA
ischemic stroke tissue [2] = assay: In vivo targeting of fluorescein-labeled peptide, fluorescence microscopy of frozen sections with TTC and TUNEL staining; parameters: species or system rat; conditions: for targeting to the contralateral tissue / targeting to the ipsilateral tissue: fluorescein peptide into left ventricle 24 hours after ischemic injury
ischemic stroke tissue [3] = assay: Autoradiogram of absorption of 131I-labeled peptide in ischemic stroke tissue; assay type: in vivo, rat
[4] = system: β-tubulin-positive neuron cell and GFAP-positive astrocyte in the ischemic brain tissue; assay: Immunofluorescence staining for the type of cells bound to the peptide (anti-tubulin, anti-GFAP); assay type: in vivo, rat; conditions: 24 hours after ischemic injury
[5] = tail vein 24 hours after ischemic injury, 1-hour circulation

| Substance | Frequency (%) [1] | Frequency (clones with the sequence / clones sequenced) [1] | targeting to the contralateral tissue (ischemic stroke tissue [2]; 15-minute circulation) | targeting to the ipsilateral tissue (ischemic stroke tissue [2]; 15-minute circulation) | further results |
| --- | --- | --- | --- | --- | --- |
| CRSAVAKNC (Stroke-targeting peptide 3) | (17%) | 5/30 |  |  |  |
| CNSREVLKC [CNSREVLKC peptide, reference compound] |  |  | not observed | not observed |  |
| ^131I-CLEVSRKNC peptide: CLEVSRKNC peptide (SEQ ID NO: 1) labeled with radioisotope 131I (cysteine pairing not given here; also: 131I radiolabel) |  |  |  |  | absorption in a general brain of a control group rat (ischemic stroke tissue [3]; 1-hour circulation): insufficient; absorption rate by optically stimulated luminescence (ischemic stroke tissue [3]; 4 coronal sections, third day vs first and seventh day, P<0.01): very high absorption rate on the third day; time course of absorption in ischemic tissue after ischemic injury (ischemic stroke tissue [3]; first, third and seventh day after ischemic injury): reached a peak on the third day; absorption in the contralateral region (ischemic stroke tissue [3]; [5]): insufficient; absorption in the ipsilateral hemisphere (ischemic stroke tissue [3]; [5]): observed in the ipsilateral hemisphere |
| CKRGGATAC (Stroke-targeting peptide 2) | (23%) | 7/30 |  |  |  |
| CLEVSRKNC (Stroke-targeting peptide 1) | (30%) | 9/30 | not targeted to the contralateral tissue | targeted to the ipsilateral tissue | co-localisation with GFAP-positive astrocyte in the ischemic brain tissue [4]: did not correspond; co-localisation with β-tubulin-positive neuron cell in the ischemic brain tissue [4]: corresponded to the position of β-tubulin-positive neuron cell; targeting in a neuron cell and an astrocyte in the contralateral brain tissue [4]: not observed; targeting to the ischemic hemisphere (ischemic stroke tissue [2]; 2-hour circulation (data not noted)): targeted to the ischemic hemisphere; targeting to control group organs (spleen, liver, lung) (ischemic stroke tissue [2]; 15-minute circulation): little; region of the stroke tissue where targeting was observed (ischemic stroke tissue [2]; 15-minute circulation, TTC staining): observed in a penumbra; binding to TUNEL-stained apoptotic cells in the penumbra (ischemic stroke tissue [2]; TUNEL staining of frozen sections): most of the apoptotic cells stained with TUNEL, except for some of them, were bound |
| CTKRNAPDC (Stroke-targeting peptide 4) | (10%) | 3/30 |  |  |  |
